Calls of active or inactive are those of the source. Some results are limits rather than exact numbers.

For one assay, the target named is Mu-type opioid receptor (Homo sapiens, UniProt P35372). It is filed as functional, cell-based.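 Also: U2OS cells with beta-arrestin recruitment to OPRM1 by beta-gal complementation.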
Assay [1] has as its target 5-hydroxytryptamine receptor 2A (Mus musculus, UniProt P35363). It is filed as functional, cell-based.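 Also: CHO-K1 cells with tagged receptor and beta-arrestin; agonist potency measured as compound-induced activation of the receptor.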
Assay [2] can be described thus: cells.
A short description of assay [3]: growth inhibition of yeast DHODH-expressing 3D7 parasites – SYBR Green, dry powder samples, dose response (AID 1159570).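 Also: parasite growth measured after 72 hours of compound exposure.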 It is filed as functional, cell-based.
Assay [4] is described as follows: toxicity to human HepG2 hepatoma cells – cell-based, plate reader, dry powder samples, cytotoxicity control, dose response (AID 1159569).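 Also: inhibitor potency with signal falling toward the positive control level.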 It is filed as functional.
A short description of assay [5]: P. falciparum Dd2 growth inhibitors, dose response, SYBR Green, cherry-picked samples (AID 1159567). It is filed as functional, cell-based.
A short description of assay [6]: Dd2 malaria parasite growth inhibition potency – SYBR Green, dry powder samples, dose response (AID 1159566).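 Also: potency for growth inhibition with lower SYBR green DNA signal.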 The class given is functional, cell-based.
Assay [7] is described as follows: toxicity to human hepatoma HepG2 cells – cell-based, cherry-picked samples, cytotoxicity control, dose response (AID 1159577). It is filed as functional.
Assay [8] in a line: growth inhibition of PfATP4-mutant resistant parasites – NITD609-resistant line, SYBR Green, dry powder, dose response (AID 1159571).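 Also: parasites synchronized at ring stage by sorbitol before testing.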 The class given is functional, cell-based.
Assay [9] in a line: cells. The note with it: HEK293.
For assay [10], the target named is Metabotropic glutamate receptor 5 (Rattus norvegicus, UniProt P31424). In words: Identification of a glycine sulfonamide based non-MPEP site positive allosteric potentiator (PAM) of mGlu5 (calcium_assay). The class given is functional.
A short description of assay [11]: HPDE-C7 pancreatic duct cell viability loss – fluorescence, HTS (AID 430). It is filed as functional, cell-based. To be noted: Homo sapiens.
Assay [12] is described as follows: viability loss of HPDE-C7K cells – cell-based, fluorescence, HTS, primary screen (AID 431). The note with it: Homo sapiens. The class given is functional.
The target in assay [13] is T1, Mannose-6-phosphate isomerase (Homo sapiens, UniProt P34949).
T1 sequence (P34949 whole entry): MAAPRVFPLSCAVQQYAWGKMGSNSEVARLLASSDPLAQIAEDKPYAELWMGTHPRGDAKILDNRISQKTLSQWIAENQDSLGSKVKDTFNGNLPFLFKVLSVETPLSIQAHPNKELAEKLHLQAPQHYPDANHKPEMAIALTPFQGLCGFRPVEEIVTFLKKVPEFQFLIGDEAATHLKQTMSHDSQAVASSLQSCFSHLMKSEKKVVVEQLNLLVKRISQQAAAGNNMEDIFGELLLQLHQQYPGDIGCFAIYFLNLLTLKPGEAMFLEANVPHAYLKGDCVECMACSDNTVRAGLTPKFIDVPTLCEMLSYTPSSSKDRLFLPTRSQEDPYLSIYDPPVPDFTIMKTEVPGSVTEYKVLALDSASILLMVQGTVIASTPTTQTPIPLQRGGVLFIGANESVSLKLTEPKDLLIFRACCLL
In words: MPI inhibition at elevated mannose 6-phosphate – biochemical, fluorescence intensity, high mannose 6-phosphate, primary screen (AID 1220).

The next assay has as its target T2, Protein Tat (Human immunodeficiency virus type 1 group M subtype B (isolate HXB2)(HIV-1), UniProt P04608).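 Also: tat binding to TAR RNA read out by fluorescence polarization.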
T2 sequence (P04608 whole entry): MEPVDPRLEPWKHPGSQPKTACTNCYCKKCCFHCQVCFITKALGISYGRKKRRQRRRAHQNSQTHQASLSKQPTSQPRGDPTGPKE
It is filed as functional.

A short description of assay [14]: HIV-1 Vif–A3G interaction blockers – biochemical, TR-FRET, GST-Vif 1-94, biotin-A3G peptide, dose response retest, primary screen (AID 1117319).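 Also: TR-FRET signal of purified GST-Vif binding a biotinylated A3G peptide; inhibitors lower the FRET signal by blocking Vif and A3G binding.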 It is filed as functional. On the technique in general: TR-FRET usually uses a lanthanide donor and a delayed reading to cut background.
In assay [15] the target is Induced myeloid leukemia cell differentiation protein Mcl-1 (Homo sapiens, UniProt Q07820). The class given is functional.
Sequence of Induced myeloid leukemia cell differentiation protein Mcl-1 (Q07820 whole entry): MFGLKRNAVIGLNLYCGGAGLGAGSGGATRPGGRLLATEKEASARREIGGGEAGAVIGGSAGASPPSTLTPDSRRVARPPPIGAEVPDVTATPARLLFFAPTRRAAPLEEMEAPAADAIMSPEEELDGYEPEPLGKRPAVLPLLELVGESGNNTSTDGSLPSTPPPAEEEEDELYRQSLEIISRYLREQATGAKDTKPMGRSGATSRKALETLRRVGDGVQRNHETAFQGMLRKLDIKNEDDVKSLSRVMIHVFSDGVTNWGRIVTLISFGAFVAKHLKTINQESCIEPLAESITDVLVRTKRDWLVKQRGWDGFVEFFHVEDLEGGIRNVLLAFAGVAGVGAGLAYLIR
The target of the next assay is Albumin (Bos taurus, UniProt P02769). In words: Counterscreen for inhibitors of T-cell receptor (TCR)-CD3 interaction: Fluorescence-based biochemical high throughput dose response assay to identify inhibitors of T-cell receptor (TCR)-CD3 interaction using a TAMRA-labeled BSA probe. It is filed as functional. For orientation: A counterscreen serves to expose hits that act by an unwanted route or on another target.
Sequence of Albumin (P02769 whole entry): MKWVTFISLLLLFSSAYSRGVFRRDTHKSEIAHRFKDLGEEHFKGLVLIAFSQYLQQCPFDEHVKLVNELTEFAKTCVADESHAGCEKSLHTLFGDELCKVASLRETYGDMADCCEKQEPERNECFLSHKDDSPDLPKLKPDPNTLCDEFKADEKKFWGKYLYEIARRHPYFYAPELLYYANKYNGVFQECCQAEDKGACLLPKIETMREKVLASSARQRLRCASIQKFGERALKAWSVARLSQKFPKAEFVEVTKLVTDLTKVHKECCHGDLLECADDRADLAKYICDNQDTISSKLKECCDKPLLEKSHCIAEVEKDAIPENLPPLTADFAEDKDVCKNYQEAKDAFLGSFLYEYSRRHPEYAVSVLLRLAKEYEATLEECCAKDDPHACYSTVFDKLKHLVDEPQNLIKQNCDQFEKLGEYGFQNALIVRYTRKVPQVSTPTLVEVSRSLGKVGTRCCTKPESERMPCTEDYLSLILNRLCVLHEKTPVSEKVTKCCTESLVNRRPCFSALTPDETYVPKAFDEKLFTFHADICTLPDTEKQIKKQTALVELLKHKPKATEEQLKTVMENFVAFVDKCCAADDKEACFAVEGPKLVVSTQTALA

In assay [16] the target is 1-phosphatidylinositol 4,5-bisphosphate phosphodiesterase gamma-1 (Homo sapiens, UniProt P19174). In words: Counterscreen for inhibitors of phospholipase C isozymes (PLC-B3): Fluorescence-based biochemical high throughput dose response assay to identify inhibitors of phospholipase C isozymes (PLC-gamma1).
For assay [17], the target named is 1-phosphatidylinositol 4,5-bisphosphate phosphodiesterase beta-3 (Homo sapiens, UniProt Q01970). In words: Fluorescence-based biochemical high throughput dose response assay to identify inhibitors of phospholipase C isozymes (PLC-B3).
Sequence of 1-phosphatidylinositol 4,5-bisphosphate phosphodiesterase beta-3 (Q01970 whole entry): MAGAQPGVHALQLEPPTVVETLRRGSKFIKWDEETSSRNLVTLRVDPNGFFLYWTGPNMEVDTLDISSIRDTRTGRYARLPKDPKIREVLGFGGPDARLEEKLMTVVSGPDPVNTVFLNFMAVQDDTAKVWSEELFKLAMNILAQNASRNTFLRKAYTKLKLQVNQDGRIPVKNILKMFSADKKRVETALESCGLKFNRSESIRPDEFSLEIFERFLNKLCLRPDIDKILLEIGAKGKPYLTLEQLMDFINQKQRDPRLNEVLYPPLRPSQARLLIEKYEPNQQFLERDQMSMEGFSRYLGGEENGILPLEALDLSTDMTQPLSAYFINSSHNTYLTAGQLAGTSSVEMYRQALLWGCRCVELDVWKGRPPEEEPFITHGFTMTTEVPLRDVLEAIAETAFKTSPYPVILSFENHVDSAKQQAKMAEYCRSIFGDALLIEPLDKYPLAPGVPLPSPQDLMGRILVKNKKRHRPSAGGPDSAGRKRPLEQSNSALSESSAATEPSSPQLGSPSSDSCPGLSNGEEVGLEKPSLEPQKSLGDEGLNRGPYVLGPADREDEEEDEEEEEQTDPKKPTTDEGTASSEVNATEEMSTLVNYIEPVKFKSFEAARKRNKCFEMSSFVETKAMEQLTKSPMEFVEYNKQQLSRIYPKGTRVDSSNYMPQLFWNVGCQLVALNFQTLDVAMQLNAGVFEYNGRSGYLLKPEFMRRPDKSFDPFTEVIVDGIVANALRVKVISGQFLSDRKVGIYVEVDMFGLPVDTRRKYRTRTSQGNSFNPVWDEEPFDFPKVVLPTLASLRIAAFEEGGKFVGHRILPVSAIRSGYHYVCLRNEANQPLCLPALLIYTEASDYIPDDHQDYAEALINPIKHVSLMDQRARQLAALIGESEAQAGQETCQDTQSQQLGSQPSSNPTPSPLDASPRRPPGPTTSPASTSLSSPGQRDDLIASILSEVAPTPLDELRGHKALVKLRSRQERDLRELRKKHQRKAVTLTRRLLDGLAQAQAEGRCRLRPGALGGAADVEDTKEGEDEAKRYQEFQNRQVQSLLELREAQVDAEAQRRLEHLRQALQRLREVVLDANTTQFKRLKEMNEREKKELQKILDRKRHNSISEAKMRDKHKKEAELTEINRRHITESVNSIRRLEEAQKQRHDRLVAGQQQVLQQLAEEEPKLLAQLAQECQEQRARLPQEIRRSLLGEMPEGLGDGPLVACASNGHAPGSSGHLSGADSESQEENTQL
For another assay, the target named is Paired box protein Pax-8 (Homo sapiens, UniProt Q06710). In words: PAX8 transcriptional activity inhibition in RMG-I – RMG-I cells, luciferase, cherry-pick, dose response (AID 687027).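 Also: luciferase reporter driven by Pax8 target thyroperoxidase promoter measured by SteadyGlo luminescence.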 The class given is functional, cell-based.
Sequence of Paired box protein Pax-8 (Q06710 whole entry): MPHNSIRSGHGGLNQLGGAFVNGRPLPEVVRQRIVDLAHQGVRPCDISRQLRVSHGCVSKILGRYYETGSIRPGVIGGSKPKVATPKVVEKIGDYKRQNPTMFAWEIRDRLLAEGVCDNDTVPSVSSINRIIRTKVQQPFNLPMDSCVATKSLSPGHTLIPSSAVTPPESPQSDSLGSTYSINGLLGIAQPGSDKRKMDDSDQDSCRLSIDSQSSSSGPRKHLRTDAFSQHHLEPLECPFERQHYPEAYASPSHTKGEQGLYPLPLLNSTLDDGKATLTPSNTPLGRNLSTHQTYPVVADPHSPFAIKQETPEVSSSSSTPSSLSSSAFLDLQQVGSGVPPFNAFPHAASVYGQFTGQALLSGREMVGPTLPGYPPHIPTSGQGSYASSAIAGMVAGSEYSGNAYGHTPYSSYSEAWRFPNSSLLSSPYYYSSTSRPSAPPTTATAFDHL
Assay [18] in a line: toxicity toward immortalized ovarian surface epithelium – cell-based, plate reader, dry powder samples, cytotoxicity control for PAX8 inhibitor project, dose response (AID 743045). It is filed as functional.
Assay [19] can be described thus: A2780 cell killing – plate reader, dry powder samples, cytotoxicity control, dose response (AID 743046). It is filed as functional, cell-based.
A short description of assay [20]: OVCAR-3 cell viability loss – plate reader, dry powder samples, PAX8 inhibitor project, dose response (AID 743044). The class given is functional, cell-based.
Assay [21] can be described thus: IGROV1 cell killing – plate reader, dry powder samples, PAX8 inhibitor project, dose response (AID 743043). It is filed as functional, cell-based. To be noted: IGROV-1.
A short description of assay [22]: general cell-killing toxicity readout – plate reader, dry powder samples, cytotoxicity control for PAX8 inhibitor project, dose response (AID 743021). The class given is functional, cell-based.
Assay [23] is described as follows: OVCAR8 cell viability loss – plate reader, dry powder samples, PAX8 project, dose response (AID 743197). The class given is functional, cell-based. The note with it: OVCAR-8.
In another assay the target is Genome polyprotein (dengue virus type 2, UniProt P29990). In words: flavivirus cap methylation enzyme inhibition – biochemical, confirmation dose response, primary screen (AID 588689). The class given is functional.
Sequence of Genome polyprotein (P29990 2492-3391 limits assumed): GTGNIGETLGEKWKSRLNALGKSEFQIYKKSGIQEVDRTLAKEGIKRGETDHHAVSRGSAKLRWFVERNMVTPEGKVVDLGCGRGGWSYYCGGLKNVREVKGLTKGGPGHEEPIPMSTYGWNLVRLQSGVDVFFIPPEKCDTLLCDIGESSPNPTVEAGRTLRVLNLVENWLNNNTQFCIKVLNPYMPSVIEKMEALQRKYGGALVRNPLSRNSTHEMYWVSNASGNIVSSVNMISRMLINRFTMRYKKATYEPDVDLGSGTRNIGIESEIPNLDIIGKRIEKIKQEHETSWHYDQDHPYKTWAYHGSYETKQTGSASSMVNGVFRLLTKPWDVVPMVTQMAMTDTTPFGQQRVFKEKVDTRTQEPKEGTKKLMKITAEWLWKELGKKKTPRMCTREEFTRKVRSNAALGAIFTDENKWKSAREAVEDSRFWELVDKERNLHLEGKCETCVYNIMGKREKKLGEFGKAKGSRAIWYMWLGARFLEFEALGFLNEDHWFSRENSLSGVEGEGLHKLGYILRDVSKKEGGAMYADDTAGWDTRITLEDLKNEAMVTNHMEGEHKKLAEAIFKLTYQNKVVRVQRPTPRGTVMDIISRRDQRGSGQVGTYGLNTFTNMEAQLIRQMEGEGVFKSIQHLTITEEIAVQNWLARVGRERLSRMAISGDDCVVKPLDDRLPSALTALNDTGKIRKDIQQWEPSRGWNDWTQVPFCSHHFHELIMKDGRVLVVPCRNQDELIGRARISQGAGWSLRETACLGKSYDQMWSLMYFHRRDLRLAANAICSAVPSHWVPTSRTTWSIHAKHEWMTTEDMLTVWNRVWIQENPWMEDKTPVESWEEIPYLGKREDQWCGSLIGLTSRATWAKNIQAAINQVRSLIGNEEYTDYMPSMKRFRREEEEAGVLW
The target in another assay is Caspase-6 (Homo sapiens, UniProt P55212). In words: inhibition of CASP6 peptide cleavage – biochemical, VEID-R110 fluorescence, cherry-pick, dose response (AID 720632).
Sequence of Caspase-6 (P55212 24-179 limits assumed): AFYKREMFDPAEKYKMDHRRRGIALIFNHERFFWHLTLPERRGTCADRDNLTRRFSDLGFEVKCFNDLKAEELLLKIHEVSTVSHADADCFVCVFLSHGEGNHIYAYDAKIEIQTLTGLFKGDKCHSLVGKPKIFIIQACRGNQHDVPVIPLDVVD
Sequence of Caspase-6 (P55212 194-293 limits assumed): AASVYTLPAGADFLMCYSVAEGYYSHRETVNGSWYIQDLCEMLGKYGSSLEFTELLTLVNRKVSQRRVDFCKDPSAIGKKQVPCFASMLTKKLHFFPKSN

Sequence of Mu-type opioid receptor (P35372 whole entry): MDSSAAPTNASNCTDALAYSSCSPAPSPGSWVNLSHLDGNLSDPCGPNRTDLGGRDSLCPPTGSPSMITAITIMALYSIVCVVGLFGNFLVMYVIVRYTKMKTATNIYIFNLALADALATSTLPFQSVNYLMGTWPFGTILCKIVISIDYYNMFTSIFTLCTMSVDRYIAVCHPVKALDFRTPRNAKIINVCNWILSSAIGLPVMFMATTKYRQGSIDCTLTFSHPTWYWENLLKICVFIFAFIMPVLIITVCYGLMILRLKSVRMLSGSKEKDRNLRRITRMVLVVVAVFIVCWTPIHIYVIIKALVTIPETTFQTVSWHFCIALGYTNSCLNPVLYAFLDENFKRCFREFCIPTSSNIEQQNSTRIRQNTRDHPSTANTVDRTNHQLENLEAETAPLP
Sequence of 5-hydroxytryptamine receptor 2A (P35363 whole entry): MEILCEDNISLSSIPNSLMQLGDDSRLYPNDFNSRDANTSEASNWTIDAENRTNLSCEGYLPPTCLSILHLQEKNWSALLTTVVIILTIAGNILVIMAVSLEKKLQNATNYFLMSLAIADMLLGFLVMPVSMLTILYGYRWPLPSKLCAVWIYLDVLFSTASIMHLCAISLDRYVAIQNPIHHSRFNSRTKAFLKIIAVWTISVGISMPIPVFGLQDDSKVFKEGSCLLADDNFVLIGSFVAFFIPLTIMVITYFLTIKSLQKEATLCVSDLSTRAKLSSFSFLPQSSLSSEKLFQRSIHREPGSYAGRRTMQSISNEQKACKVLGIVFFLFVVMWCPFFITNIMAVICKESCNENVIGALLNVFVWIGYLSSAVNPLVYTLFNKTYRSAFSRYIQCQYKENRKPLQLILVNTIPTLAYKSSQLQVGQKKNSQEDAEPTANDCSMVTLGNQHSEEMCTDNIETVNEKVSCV

As to `CN1CCc2c(sc(NC(=O)Cc3ccccc3)c2C#N)C1`, the EC50 was 92.5 µM (inactive) at Mu-type opioid receptor and 48.2 µM (inactive) in assay [1]. The AC50 in “cells [2]” was 66.1 µM (active).

Take `C[C@@H]1CN([C@@H](C)CO)C(=O)c2c(c3ccccc3n2C)-c2ccccc2CO[C@@H]1CN(C)C(=O)Nc1ccc(-c2ccccc2)cc1`: the AC50 in assay [3] is 2.36 µM (active); in assay [4], > 100 µM (inactive); in assay [5], 1.93 µM (active); in assay [6] it was 1.48 µM (active); in [7], > 42 µM (inactive); in assay [8], 1.46 µM (active).

As for `COC(=O)C1=CN(C)C=C(C(=O)OC)C1c1ccccc1Cl`, the AC50 in “cells [9]” is > 52 µM (inactive).

For `CS(=O)(=O)N1c2ccccc2CCC1C(=O)Nc1ccncc1` (stereo not given), the EC50 in [10] is 10 µM (inconclusive).

Take `O=C(CCN1CCN(c2ccccc2F)CC1)c1ccc(Br)cc1`: the concentration giving a half-maximal response (EC50) in [11] was 7.29 µM (active); in assay [12] it was 8.84 µM (active). The IC50 in assay [13] was 38.2 µM (active).

`CCOc1ccc(-n2c(Cc3cc(O)nc(O)n3)nnc2SCC(N)=O)cc1`: the IC50 (on Protein Tat; in assay [14]) was > 100 µM (active) in each case.

As for `C[C@@H]1CN([C@@H](C)CO)C(=O)Cc2cc(NC(=O)Nc3ccc4c(c3)OCO4)ccc2O[C@H]1CN(C)Cc1ccc2c(c1)OCO2`, in assay [7], the AC50 was > 39 µM (inactive).

With `O=C1/C(=C/c2ccco2)SC(=S)N1c1cccnc1`, the IC50 in assay [15] is 3.16 µM (not active); on Albumin, > 94.1 µM (inactive); in assay [16], > 122 µM (inactive); in [17], > 122 µM (inactive).

As to `C[C@H](CO)N1C[C@H](C)[C@@H](CN(C)S(=O)(=O)c2ccc(F)cc2)OCCCC[C@H](C)Oc2ccc(NS(=O)(=O)c3ccc(Cl)cc3)cc2C1=O`, the half-maximal activity concentration (AC50) on Paired box protein Pax-8 is 4.97 µM (active); in assay [18], 13.1 µM (active); in [19] it was 23.3 µM (active); in [20] it was 11.9 µM (active); in [21], 35.1 µM (active); in assay [22] it was 49.2 µM (active). In [23], the AC50 was 14.9 µM (active).

Take `O=C(O)c1cccc(N2C(=O)c3cc([N+](=O)[O-])cc4cc([N+](=O)[O-])cc(c34)C2=O)c1`: the IC50 at Genome polyprotein is 26.7 µM (active). Moreover, on Caspase-6, the AC50 was 8.47 µM (active).

One may read the EC50 as the concentration giving half of the maximal effect. The term AC50 denotes the concentration giving half of the maximal activity seen. Broadly, the IC50 is the concentration at which inhibition is half-maximal.
